Test results: patent US7747390B2, “Digital cell” (National Institute of Advanced Industrial Science and …, priority 2003, dated 2010)

Assays:
HEK293 cells = experiment: Solid phase transfection with actin-like acting substances (FIG. 1); assay type: cell-based, human; settings: pEGFP-N1, Effectene reagent, gelatin as control
Description: (§1) The final concentration of DNA was adjusted to 1 μg/μL. An actin-like acting substance was preserved as a stock having a concentration of 10 μg/μL in ddH2O. All dilutions were made using PBS, ddH2O, or Dulbecco's MEM. A series of dilutions, for example, 0.2 μg/μL, 0.27 μg/μL, 0.4 μg/μL, 0.53 μg/μL, 0.6 μg/μL, 0.8 μg/μL, 1.0 μg/μL, 1.07 μg/μL, 1.33 μg/μL, and the like, were formulated.
(§2) Transfection reagents and DNA were mixed to form a DNA-transfection reagent complex. Formation of the complex requires a certain period of time. Therefore, the mixture was spotted onto a solid phase support (e.g., a poly-L-lysine slide) using an arrayer. In Example 2, as a solid phase support, an APS slide, a MAS slide, and an uncoated slide were used as well as a poly-L-lysine slide. These slides are available from Matsunami Glass (Kishiwada, Japan) or the like.
(§3) 300 μL of DNA concentrated buffer (EC buffer)+16 μL of an enhancer were mixed in an Eppendorf tube. The mixture was mixed with a Vortex, followed by incubation for 5 minutes. 50 μL of a transfection reagent (Effectene, etc.) was added to the mixture, followed by mixing by pipetting. To apply a transfection reagent, an annular wax barrier was formed around the spots on the slide. 366 μL of the mixture was added to the spot region surrounded by the wax, followed by incubation at room temperature for 10 to 20 minutes. Thereby, the fixation to the support was manually achieved.
(§4) The growing cells were distributed to a concentration of 10^7 cells/25 mL. The cells were plated on the slide in a 100×100×15 mm squared Petri dish or a 100 mm (radius)×15 mm circular dish. Transfection was conducted for about 40 hours. This period of time corresponded to about 2 cell cycles. The slide was treated for immunofluorescence.
(§5) To quantify transfection efficiency, the present inventors use a DNA microarray scanner (GeneTAC UC4×4, Genomic Solutions Inc., MI). Total fluorescence intensity (arbitrary unit) was measured, and thereafter, fluorescence intensity per unit surface area was calculated.

[1] = tested on: human mesenchymal stem cells (hMSC); experiment: Cell adhesion profile and cross-sectional confocal observation in presence or absence of fibronectin (FIGS. 8-10); assay type: cell-based
[2] = tested on: cells on transfection array; experiment: Transfection at various fibronectin concentrations on coated and uncoated slides (FIG. 7); assay type: cell-based
Description: as §1, §2, §3, §4, §5

[3] = tested on: cells on transfection array; experiment: Transfection efficiency when fibronectin fragments were used (FIGS. 2-4); assay type: cell-based; settings: fibronectin fragments or RGD peptide as actin-like acting substance
Description: as §1, §2
300 μL of DNA concentrated buffer (EC buffer)+16 μL of an enhancer were mixed in an Eppendorf tube. The mixture was mixed with a Vortex, followed by incubation for 5 minutes. 50 μL of a transfection reagent (Effectene, etc.) was added to the mixture, followed by mixing by pipetting. […]
as §5

[4] = tested on: cells resistant or sensitive to the anticancer agent; experiment: Time-lapse profiles of cells exposed to anticancer agent; assay type: cell-based; settings: cisplatin 1 μM, 5 μM, 10 μM in medium
Description: In this example, cisplatin was used as an exemplary anticancer agent and was mixed into the medium of exposed cells. The concentration of the anticancer agent was selected as appropriate, such as 1 μM, 5 μM, 10 μM, and the like, to observe the reaction of the cells. Cisplatin was applied to cells resistant or sensitive to the anticancer agent. Time-lapse observation was conducted to produce profiles as in the above-described examples.

laminin
transfection (transfection efficiency) (HEK293 cells): transfection took place to a significant level

gelatin [reference compound]
transfection (transfection efficiency) (HEK293 cells): not very successful

fibronectin
surface area of the nucleus ([1]; in the presence of fibronectin, FIG. 10): significantly increased | extension of adherent cells ([1]; initial 3 hours of culture in the presence of fibronectin, FIG. 9): full extension of cells | transfection (transfection efficiency) (HEK293 cells): transfection took place to a significant level | fibronectin concentration at which the effect was further increased ([2]; APS coating): > 1.07 µg/µL | fibronectin concentration at which transfection efficiency reached a plateau ([2]; PLL coating): more than 0.53 μg/μL | fibronectin concentration at which transfection efficiency reached a plateau ([2]; absence of coating): more than 0.53 μg/μL | transfection efficiency versus fibronectin concentration ([2]; fibronectin 0, 0.27, 0.53, 0.8, 1.07, 1.33 μg/μL, FIG. 7): increased with an increase in fibronectin concentration

RGD peptide (tripeptide) [reference compound]
transfection activity [3]: increased transfection efficiency was not exhibited | transfection (transfection efficiency) (HEK293 cells): substantially no effect

N.N.[Cl][Pt][Cl] [cisplatin]
time-lapse profiles [4]: varied depending on the difference in cisplatin concentration and resistance/sensitivity
